Experimental data as given in patent US20190196073A1, “COMPOSITION, FILM, NEAR INFRARED CUT FILTER, PATTERN FORMING METHOD, LAMINATE, SOLID IMAGE PICKUP ELEMENT, IMAGE DISPLAY DEVICE, CAMERA MODULE, AND INFRARED SENSOR” (FUJIFILM Corporation, priority 2016, published 2019).
≈ marks a conversion by molar mass, not a printed value.

Key:
[1] = Measurement of absorption maximum of near infrared absorbing compound in solution; assay type: physicochemical
Text: In addition, in the present invention, a case where the near infrared absorbing compound “has an absorption maximum in a wavelength range of 650 to 1000 nm” represents the near infrared absorbing compound has a maximum absorbance in a wavelength range of 650 to 1000 nm in an absorption spectrum of the near infrared absorbing compound in a solution. A measurement solvent used for measuring an absorption spectrum of the near infrared absorbing compound in the solution is not particularly limited as long as the near infrared absorbing compound is soluble therein. From the viewpoint of solubility, for example, chloroform, dimethylformamide, tetrahydrofuran, or methylene chloride can be used. For example, in the case of a compound which is soluble in chloroform, chloroform is used as the measurement solvent. In the case of a compound which is not soluble in chloroform, methylene chloride is used. In addition, in the case of a compound which is not soluble in chloroform and methylene chloride, dimethylformamide is used. In addition, in the case of a compound which is not soluble in chloroform, methylene chloride, and dimethylformamide, tetrahydrofuran is used.
<Measurement of Absorption Maximum of Near Infrared Absorbing Compound>
A near infrared absorbing compound shown in the following tables was dissolved in a measurement solvent shown in the following tables to prepare a sample solution. Using a spectrophotometer U-4100 (manufactured by Hitachi High-Technologies Corporation), an absorbance of the sample solution in a wavelength range of 300 to 1300 nm was measured to obtain an absorption maximum.

physchem = conditions: 25 °C, organic solvent or mixture, thermodynamic from solid
Method: (§1) Under the atmospheric pressure, about 100 mg (a precisely weighed value is represented by X mg) of the near infrared absorbing compound is added to 1 L of propylene glycol methyl ether acetate at 25° C., and the components are stirred for 30 minutes. Next, the solution is left to stand for 5 minutes and then is filtered, and the filtrate is dried under reduced pressure at 80° C. for 2 hours is precisely weighed (a precisely weighed value is represented by Y mg). The solubility of the near infrared absorbing compound dissolved in propylene glycol methyl ether acetate is calculated from the following expression.

[2] = Measurement of solubility of near infrared absorbing compound in propylene glycol methyl ether acetate; conditions: for solubility at 30 min: propylene glycol methyl ether acetate, 25 °C, organic solvent or mixture, thermodynamic from solid
Method: as §1

Molecule	Absorption Maximum ([1]; measurement solvent Chloroform)	solubility at 30 min (physchem)	other results
C/C(C1=C(O)/C(=C(/C)C2=Nc3ccccc3C2CCN)C1=O)=C1/Nc2ccccc2C1CCN (stereo not drawn) [Example A-28]	737 nm	1.92 µg/mL (≈ 4.22 µM)	–
O=C1C(c2ccc(N3CCCCC3)cc2NC(=O)C(F)(F)F)=C([O-])/C1=C1\C=CC(=[N+]2CCCCC2)C=C1NC(=O)C(F)(F)F [Example A-39]	698 nm	2.68 µg/mL (≈ 4.3 µM)	–
CC1C(/C=C2/C(=O)C(/C=C3/C(C)c4cc(C(N)=O)ccc4N3C)=C2[O-])=[N+](C)c2ccc(C(N)=O)cc21 (stereo not drawn) [Example A-26]	665 nm	11.2 µg/mL (≈ 23.2 µM)	–
CCCCCCCC(CCCCCCC)N1C(=O)c2ccc3c4ccc5c6ccc7c8ccc9c%10c(ccc(c%11ccc(c%12ccc(c%13ccc(c2c3%13)C1=O)c4c5%12)c6c7%11)c%108)C(=O)N(C(CCCCCCC)CCCCCCC)C9=O [AR-4, reference compound]	765 nm	–	solubility at 30 min [2]: 32.1 µg/mL (≈ 30.3 µM)
O=C1C2=C(c3cnc4ccccc4n3)N(B(c3ccccc3)c3ccccc3)C(=O)C2=C(c2cnc3ccccc3n2)N1B(c1ccccc1)c1ccccc1 [Example A-21]	710 nm	5.47 µg/mL (≈ 7.59 µM)	–
CC(=O)NC1CCC2(CC1)N=c1/c(=C3/C(=O)C(c4ccc5cccc6c5c4NC4(CCC(NC(C)=O)CC4)N6)=C3O)ccc3cccc(c13)N2 (stereo not drawn) [Example A-27]	810 nm	6.74 µg/mL (≈ 10.1 µM)	–
CCN(CC)c1cc2[nH]c(=O)c3ccc(cc3)c(=O)[nH]c3cc(=[N+](CC)CC)c(C)cc3c3c([O-])c(c3=O)c2cc1C [Example A-36]	715 nm	4.29 µg/mL (≈ 7.6 µM)	–
O=C1C(c2ccc3cccc4c3c2NB(c2ccc(O)cc2)N4)=C(O)/C1=c1/ccc2cccc3c2c1=NB(c1ccc(O)cc1)N3 [Example A-31]	823 nm	7.69 µg/mL (≈ 12.9 µM)	–
CCOC(=O)NC1=CC(=[N+](CC)CC)C=C/C1=C1/C(=O)C(c2ccc(N(CC)CC)cc2NC(=O)OCC)=C1[O-] [Example A-34]	680 nm	7.72 µg/mL (≈ 14 µM)	–
CCNC(=O)NC1=CC(=[N+](CC)CC)C=C/C1=C1/C(=O)C(c2ccc(N(CC)CC)cc2NC(=O)NCC)=C1[O-] [Example A-25]	680 nm	2.51 µg/mL (≈ 4.57 µM)	–
c1ccc2cc3c(cc2c1)C1=NC3=Nc2c3cc4ccccc4cc3c3[n]2[Cu][n]2c(c4cc5ccccc5cc4c2=NC2=NC(=N3)c3cc4ccccc4cc32)=N1 [Example A-3]	775 nm	–	Solubility ([2]; in propylene glycol methyl ether acetate at 25° C., about 100 mg added to 1 L): 0.33 µg/mL
O=C1C(c2ccc(N(c3ccccc3)c3ccccc3)cc2NS(=O)(=O)C(F)(F)F)=C(O)/C1=C1/C=CC(N(c2ccccc2)c2ccccc2)=C/C1=N\S(=O)(=O)C(F)(F)F [Example A-30]	737 nm	3.58 µg/mL (≈ 4.15 µM)	–
4,5-octakis(phenylthio)-3,6-{tetrakis(2,6-dimethylphenoxy)-tetrakis(n-hexyamino)}copper phthalocyanine [AR-1, reference compound]	780 nm	–	–
O=C1c2ccc3c4ccc5c6ccc7c8ccc9c%10c(ccc(c%11ccc(c%12ccc(c%13ccc(c2c3%13)C(=O)N1c1ccccc1)c4c5%12)c6c7%11)c%108)C(=O)N(c1ccccc1)C9=O [Example A-2]	–	–	Absorption Maximum ([1]; measurement solvent Methylene Chloride): 765 nm; solubility at 30 min [2]: 0.64 µg/mL (≈ 0.809 µM)
CC1N(C)c2cc(NC(=O)c3ccc4c(c3)C(=O)N(C)C4=O)c(C3=C([O-])/C(=c4\cc5c(cc4NC(=O)c4ccc6c(c4)C(=O)N(C)C6=O)=[N+](C)C(C)C5(C)C)C3=O)cc2C1(C)C (stereo not drawn) [Example A-24]	711 nm	7.88 µg/mL (≈ 9.46 µM)	–
CNC(=O)Nc1cc(N2CCCC2)c(C)cc1C1=C([O-])/C(=c2\cc3c4c(c2NC(=O)NC)CCC[N+]=4CCC3)C1=O [Example A-41]	710 nm	0.94 µg/mL (≈ 1.69 µM)	–
NC(=O)C1N=c2/c(=C3/C(=O)C(c4ccc5cccc6c5c4NC(C(N)=O)N6)=C3O)ccc3cccc(c23)N1 (stereo not drawn) [Example A-29]	810 nm	0.57 µg/mL (≈ 1.13 µM)	–
CC1=CC(=[N+](c2ccccc2)c2ccccc2)S/C1=C1/C(=O)C(c2sc(N(c3ccccc3)c3ccccc3)cc2C)=C1[O-] [Example A-40]	706 nm	11.2 µg/mL (≈ 18.4 µM)	–
CC1(C)c2ccccc2N(c2cc(O)c(C3=C([O-])C(=C4C(O)=CC(=[N+]5c6ccccc6C(C)(C)c6ccccc65)C=C4O)C3=O)c(O)c2)c2ccccc21 [Example A-37]	675 nm	0.65 µg/mL (≈ 0.912 µM)	–
CCN1/C(=C/C2=C([O-])C(=C\c3sc4ccccc4[n+]3CC)/C(=O)C2=O)Sc2ccccc21 [Example A-43]	848 nm	2.22 µg/mL (≈ 4.82 µM)	–
CC1N(C)c2cc(NC(=O)CSC(=N)N)c(C3=C([O-])/C(=c4\cc5c(cc4NC(=O)CSC(=N)N)=[N+](C)C(C)C5(C)C)C3=O)cc2C1(C)C (stereo not drawn) [Example A-23]	708 nm	5.62 µg/mL (≈ 8.13 µM)	–
CCOc1ccc(OCC)c2c1C1=NC/2=N\c2c3c(OCC)ccc(OCC)c3c3[n]2[Zn][n]2/c(c4c(OCC)ccc(OCC)c4/c2=N/C2=NC(=N\3)/c3c(OCC)ccc(OCC)c32)=N\1 [Example A-6]	744 nm	–	solubility at 30 min [2]: 15.5 µg/mL
NC(=O)c1cccc(N2C(=O)NC(=O)/C(=C/C=C(/C=C/c3c([O-])[nH]c(=O)n(-c4cccc(C(N)=O)c4)c3=O)c3ccccc3)C2=O)c1.[K+] [Example A-4]	–	–	Absorption Maximum ([1]; measurement solvent Dimethylformamide): 740 nm; solubility at 30 min [2]: 5.82 µg/mL
O=C1C(=C2C(O)=CC(=[N+]3c4ccccc4-c4ccccc43)C=C2O)C([O-])=C1c1c(O)cc(-n2c3ccccc3c3ccccc32)cc1O [Example A-38]	750 nm	0.88 µg/mL (≈ 1.4 µM)	–
CCN1/C(=C/C2=C([O-])C(=C/c3sc4c5ccccc5ccc4[n+]3CC)/C2=O)Sc2c1ccc1ccccc21 [Example A-32]	705 nm	0.42 µg/mL (≈ 0.788 µM)	–
CC(=O)NC1=CC(=[N+]2CCCC2)C(C)=C/C1=C1/C(=O)C(c2cc(C)c(N3CCCC3)cc2NC(C)=O)=C1[O-] [Example A-35]	700 nm	5.11 µg/mL (≈ 9.93 µM)	–
